According to ChEMBL document CHEMBL1135083, “A designed P1 cysteine mimetic for covalent and non-covalent inhibitors of HCV NS3 protease” (Bioorg Med Chem Lett, 2002):
Numbered stars: 1 amine (or outer) side, 2 acyl side, 3 side chain; on linkers, the order of the positions; unused ones are H or OH. Square brackets hold non-standard residues; d marks the D form. Peptide text beside a SMILES is read from it. * marks the point of attachment. Dip = N[C@H](C(=O)O)C(c1ccccc1)c1ccccc1; X4 = O=C(C(=O)[*:2])[C@H](CC(F)F)N[*:1]; X3 = O=C(c1nc2ccccc2s1)[C@H](CC(F)F)N*; X6 = O=C(c1nc2ccccc2o1)[C@H](CC(F)F)N*; Abu(4,4-F2) = N[C@@H](CC(F)F)C(=O)O; X5 = O=C([C@@H](CC(F)F)N[*:1])[*:2]; X1 = O=C(c1nccs1)[C@H](CC(F)F)N*; X2 = COC(=O)C(=O)[C@H](CC(F)F)N*; X7 = O=C(O)C(=O)[C@H](CC(F)F)N*; Cha = N[C@@H](CC1CCCCC1)C(=O)O; AllylGly = C=CC[C@H](N)C(=O)O; Abu = CC[C@H](N)C(=O)O; NHBn = c1ccc(CN*)cc1

molecular target: Hepatitis C virus serine protease, NS3/NS4A (Hepatitis C virus, UniProt A3EZI9+D2K2A8); experiment: Inhibition of hepatitis C virus (HCV) NS3/NS4A serine protease; format: protein-complex assay, Hepacivirus hominis
Sequence (D2K2A8 whole entry): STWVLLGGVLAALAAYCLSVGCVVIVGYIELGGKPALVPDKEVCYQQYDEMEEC
Sequence (A3EZI9 whole entry): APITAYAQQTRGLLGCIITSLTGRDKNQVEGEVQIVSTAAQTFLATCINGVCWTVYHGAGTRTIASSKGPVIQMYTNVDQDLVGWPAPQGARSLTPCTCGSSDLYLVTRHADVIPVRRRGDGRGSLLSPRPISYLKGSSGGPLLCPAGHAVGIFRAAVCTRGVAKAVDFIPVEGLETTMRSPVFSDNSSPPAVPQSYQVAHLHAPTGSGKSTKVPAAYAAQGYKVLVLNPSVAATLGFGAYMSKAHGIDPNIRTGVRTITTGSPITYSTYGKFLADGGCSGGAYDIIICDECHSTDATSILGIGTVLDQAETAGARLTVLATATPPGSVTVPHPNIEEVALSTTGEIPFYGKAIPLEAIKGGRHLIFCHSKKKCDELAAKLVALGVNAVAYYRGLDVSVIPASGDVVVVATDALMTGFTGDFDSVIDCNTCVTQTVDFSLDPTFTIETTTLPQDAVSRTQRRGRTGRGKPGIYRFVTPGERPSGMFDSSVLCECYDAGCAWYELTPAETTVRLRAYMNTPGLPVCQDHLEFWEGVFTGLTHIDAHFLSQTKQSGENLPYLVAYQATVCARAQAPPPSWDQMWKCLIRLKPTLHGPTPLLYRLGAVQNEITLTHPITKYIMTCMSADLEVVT

| Structure (SMILES) | Ki [nM] |
| --- | --- |
| C=CC[C@@H](C=O)NC(=O)[C@H](CC1CCCCC1)NC(=O)[C@H](CCC(=O)O)NC(=O)[C@@H](NC(=O)[C@H](CCC(=O)O)NC(=O)[C@H](CC(=O)O)NC(C)=O)C(c1ccccc1)c1ccccc1 (Ac-DE[Dip]E[Cha][AllylGly]-aldehyde) | 7 |
| C=CC[C@H](NC(=O)[C@H](CC1CCCCC1)NC(=O)[C@H](CCC(=O)O)NC(=O)[C@@H](NC(=O)[C@H](CCC(=O)O)NC(=O)[C@H](CC(=O)O)NC(C)=O)C(c1ccccc1)c1ccccc1)C(=O)O (Ac-DE[Dip]E[Cha][AllylGly]-OH) | 100 |
| CC(=O)N[C@@H](CC(=O)O)C(=O)N[C@@H](CCC(=O)O)C(=O)N[C@H](C(=O)N[C@@H](CCC(=O)O)C(=O)N[C@@H](CC1CCCCC1)C(=O)N[C@@H](CS)C(=O)O)C(c1ccccc1)c1ccccc1 (Ac-DE[Dip]E[Cha]C-OH) | 40 |
| CC[C@H](NC(=O)[C@H](CC1CCCCC1)NC(=O)[C@H](CCC(=O)O)NC(=O)[C@@H](NC(=O)[C@H](CCC(=O)O)NC(=O)[C@H](CC(=O)O)NC(C)=O)C(c1ccccc1)c1ccccc1)C(=O)O (Ac-DE[Dip]E[Cha][Abu]-OH) | 700 |
| CC(=O)N[C@@H](CC(=O)O)C(=O)N[C@@H](CCC(=O)O)C(=O)N[C@H](C(=O)N[C@@H](CCC(=O)O)C(=O)N[C@@H](CC1CCCCC1)C(=O)N[C@@H](CC(F)F)C(=O)C(=O)NCc1ccccc1)C(c1ccccc1)c1ccccc1 (Ac-DE[Dip]E[Cha][X4]-NHBn) | 1.5 |

The remaining lines, values ahead:

| Ki [nM] | Structure (SMILES) |
| --- | --- |
| 640 | CC(=O)N[C@@H](CC(=O)O)C(=O)N[C@@H](CCC(=O)O)C(=O)N[C@H](C(=O)N[C@@H](CCC(=O)O)C(=O)N[C@@H](CC1CCCCC1)C(=O)N[C@H](CC(F)F)C(=O)O)C(c1ccccc1)c1ccccc1 (Ac-DE[Dip]E[Cha][X5]-OH) |
| 150 | CC(=O)N[C@@H](CC(=O)O)C(=O)N[C@@H](CCC(=O)O)C(=O)N[C@H](C(=O)N[C@@H](CCC(=O)O)C(=O)N[C@@H](CC1CCCCC1)C(=O)N[C@@H](CC(F)F)C(=O)c1nc2ccccc2s1)C(c1ccccc1)c1ccccc1 (Ac-DE[Dip]E[Cha]-X3) |
| 2 | COC(=O)C(=O)[C@H](CC(F)F)NC(=O)[C@H](CC1CCCCC1)NC(=O)[C@H](CCC(=O)O)NC(=O)[C@@H](NC(=O)[C@H](CCC(=O)O)NC(=O)[C@H](CC(=O)O)NC(C)=O)C(c1ccccc1)c1ccccc1 (Ac-DE[Dip]E[Cha]-X2) |
| 0.5 | CC(=O)N[C@@H](CC(=O)O)C(=O)N[C@@H](CCC(=O)O)C(=O)N[C@H](C(=O)N[C@@H](CCC(=O)O)C(=O)N[C@@H](CC1CCCCC1)C(=O)N[C@H](C=O)CC(F)F)C(c1ccccc1)c1ccccc1 (Ac-DE[Dip]E[Cha][Abu(4,4-F2)]-aldehyde) |
| 30 | CC(=O)N[C@@H](CC(=O)O)C(=O)N[C@@H](CCC(=O)O)C(=O)N[C@H](C(=O)N[C@@H](CCC(=O)O)C(=O)N[C@@H](CC1CCCCC1)C(=O)N[C@@H](CC(F)F)C(=O)O)C(c1ccccc1)c1ccccc1 (Ac-DE[Dip]E[Cha][Abu(4,4-F2)]-OH) |
| 1500 | CC(=O)N[C@@H](CC(=O)O)C(=O)N[C@@H](CCC(=O)O)C(=O)N[C@H](C(=O)N[C@@H](CCC(=O)O)C(=O)N[C@@H](CC1CCCCC1)C(=O)N[C@@H](CC(F)F)C(=O)c1nccs1)C(c1ccccc1)c1ccccc1 (Ac-DE[Dip]E[Cha]-X1) |
| 600 | CC(=O)N[C@@H](CC(=O)O)C(=O)N[C@@H](CCC(=O)O)C(=O)N[C@H](C(=O)N[C@@H](CCC(=O)O)C(=O)N[C@@H](CC1CCCCC1)C(=O)N[C@@H](CC(F)F)C(=O)c1nc2ccccc2o1)C(c1ccccc1)c1ccccc1 (Ac-DE[Dip]E[Cha]-X6) |
| 0.01 | CC(=O)N[C@@H](CC(=O)O)C(=O)N[C@@H](CCC(=O)O)C(=O)N[C@H](C(=O)N[C@@H](CCC(=O)O)C(=O)N[C@@H](CC1CCCCC1)C(=O)N[C@@H](CC(F)F)C(=O)C(=O)O)C(c1ccccc1)c1ccccc1 (Ac-DE[Dip]E[Cha]-X7) |
